This note sets out measurements from patent publication US4992442A, “Pyrrolo(3,2-e)pyrazolo(1,5-a)pyrimidine derivative and medicine comprising the same” (Pola Chemical Industries Inc., Japan, priority 1988, dated 1991).

In data set [1] the test system is trachea. Put plainly: Tracheal expansion activity against acetyl choline (ACh) induced tracheal contraction. Set-up: species or system Hartley guinea pig. To be noted: for IC50: Cavia porcellus, ACh 1×10^-6 M, read-out: 50% Contraction-inhibitive Concentration, ACh Contraction; for Ratio of Effectiveness, ACh Contraction: reverse ratio of 50% contraction-inhibitive concentration to that of theophylline.
Text: (§6) Tracheal expansion activity against tracheal contraction induced by acetyl choline (ACh) and histamine (His)
(§7) A Hartley guinea pigs (male, weight: 400-500 g) was killed by bleeding and its trachea was immediately extracted. […] Static tensions was isometrically measured.

In data set [2] the test system is coronary artery. Put plainly: Vasodilative activity, Magnus method, dog coronary artery contracted with potassium chloride. To be noted: Canis lupus familiaris; 60 mM potassium chloride; read-out: 50% Contraction-inhibitive Concentrations, Coronary Artery, KCl. Here is the method:
(§1) A bastard, male, adult dog weighing about 8-10 kg was anesthetized with pentobarbital sodium (25 mg/kg, i.v.) and killed by bleeding. Its basilar and coronary arteries were immediately extracted. […] Static tensions of the ring were isometrically measured and recorded.
(§2) Test compounds were accumulatively given to specimens contracted with 1×10^-7 M (final concentration) U-46619 to the final concentration of 1×10^-7 to 1×10^-4 M to investigate their vasodilative activities.
(§3) The vasodilative activity and coronary blood flow increase activity were respectively measured according to the following Methods 1 and 2.
(§4) The same Magnus method was used as in Experimental Example 1, except that instead of 1×10^-7 M (final concentration) U-46619, 5×10^-6 M (final concentration), PGF2 α or 60 mM potassium chloride was used.

Data set [3] has as its system basilar artery. Put plainly: Vasodilative activity, Magnus method, dog basilar artery contracted with potassium chloride. To be noted: Canis lupus familiaris; 60 mM potassium chloride; read-out: 50% Contraction-inhibitive Concentrations, Basilar Artery, KCl. As for the experimental part: as §1, §2, §3, §4
A short description of data set [4]: Acute toxicity test, oral, mice. The following applies: mouse, in vivo, ICR male mice, 14 days observation. As for the experimental part: An acute toxicity test on compounds of the present invention was performed according to the following method.
ICR male mice were purchased at 4 weeks of age and fed for 10 days before testing. The test compound suspended in 1% methylcellullose solution was orally administered using a metallic gaster probe at a dose of 0.1 ml (as the test compound) per […] of body weight. The mice were fasted for 15 hours before the administration. Observation was made for 14 days after the administration, and the LD50 value was determined from the survival rate by the Richfield Wilcoxin method.

Data set [5] has as its system coronary artery. Put plainly: Vasodilative activity, Magnus method, dog coronary artery contracted with PGF2 α. The following applies: Canis lupus familiaris; PGF2 α 5×10^-6 M; read-out: 50% Contraction-inhibitive Concentrations, Coronary Artery, PGF2 α. As for the experimental part: as §1, §2, §3, §4
Data set [6] relates to basilar artery. Put plainly: Vasodilative activity, Magnus method, dog basilar artery contracted with PGF2 α. The following applies: Canis lupus familiaris; PGF2 α 5×10^-6 M; read-out: 50% Contraction-inhibitive Concentrations, Basilar Artery, PGF2 α. As for the experimental part: as §1, §2, §3, §4
Data set [7] has as its system trachea. Put plainly: Tracheal expansion activity against histamine (His) induced tracheal contraction. Set-up: species or system Hartley guinea pig. To be noted: for IC50: Cavia porcellus, His 1×10^-6 M, read-out: 50% Contraction-inhibitive Concentration, His Contraction; for Ratio of Effectiveness, His Contraction: reverse ratio of 50% contraction-inhibitive concentration to that of theophylline.
Text: as §6, §7

The test system of another data set is coronary blood flow. Put plainly: Coronary blood flow increase activity in anesthetized dog. The data set is classed as in vivo. To be noted: maximum flow relative to before administration.
Text: as §3
The heart was exposed by an incision into pericardium through the left quartus costa rib. About 1 cm of a coronary vessel was peeled off from the surrounding tissues at about 1 cm from the left ramus circumplexus and a blood flow meter probe was installed for measuring the coronary blood flow. Left ventricle pressure, heart rate, right femoral artery pressure, and lower extremity blood flow rate were monitored. All test compounds were intravenously administered.
The maximum coronary blood flow rates achieved after the administration as a percentage of the blood flow before administration was taken as the coronary blood flow increase activity.

The subject of data set [8] is coronary artery. The data set can be described thus: Vasodilative activity, Magnus method, dog coronary artery ring contracted with U-46619. The following applies: for IC50: Canis lupus familiaris, U-46619 1×10^-7 M, read-out: 50% Contraction-inhibitive Concentrations; for vasodilative activity, times stronger than trapidil: U-46619, relative to trapidil. Here is the method: (§5) Vasodilative activity of the compound of the present invention was measured by the Magnus method.
as §1, §2

The subject of data set [9] is basilar artery. The data set can be described thus: Vasodilative activity, Magnus method, dog basilar artery ring contracted with U-46619. The following applies: for IC50: Canis lupus familiaris, U-46619 1×10^-7 M, read-out: 50% Contraction-inhibitive Concentrations; for vasodilative activity, times stronger than trapidil: U-46619, relative to trapidil. As for the experimental part: as §5, §1, §2

SMILES strings stand for the structures.

As usually defined, the LD50 is the dose expected to kill half of the subjects tested. As for `Cc1nc2c(C#N)cnn2c2c1CCN2CC1CCCCC1` [Compound No. 9, 3-cyano-8-cyclohexylmethyl-6,7-dihydro-5-methyl-8H-pyrrolo[3,2-e]pyrazolo[1,5-a]pyrimidine], the IC50 is 0.79 µM in the data set with trachea [1]; over 100 µM in the data set on coronary artery [2]; over 100 µM with basilar artery [3]; over 100 µM with coronary artery [5]; over 100 µM in the data set with basilar artery [6]. In addition, the “Ratio of Effectiveness, ACh Contraction” value with trachea [1] is reported as 6.3. Further, in [4], the LD50 at 336 h was at least 1000 mg/kg.

For `Cn1c(=O)c2[nH]cnc2n(C)c1=O` [Theophylline, reference compound], the IC50 in the data set with trachea [7] came out at 6.3 µM; in the data set with trachea [1], 5 µM.

As for `Cc1nc2c(C#N)cnn2c2c1CCN2N1CCOCC1` [Compound No. 10, 3-cyano-6,7-dihydro-5-methyl-8-(4-morpholyl)-8H-pyrrolo[3,2-e]yrazolo[1,5-a]pyrimidine], the IC50 in the data set on trachea [7] was 5 µM; in the data set with trachea [1], 1.3 µM; with coronary artery [2] it was over 100 µM; in the data set on basilar artery [3], over 100 µM; in the data set with coronary artery [5], over 100 µM; with basilar artery [6], over 100 µM. Further, the “Ratio of Effectiveness, His Contraction” value in the data set on trachea [7] came out at 1.3. The “Ratio of Effectiveness, ACh Contraction” value with trachea [1] is reported as 3.9. This compound yielded an LD50 at 336 h in data set [4] of at least 1000 mg/kg.

With `Cc1nc2c(C#N)cnn2c2c1CCN2CC(C)C` [Compound No. 4, 8-iso-butyl-3-cyano-6,7-dihydro-5-methyl-8H-pyrrolo [3,2-e]pyrazolo[1,5-a]pyrimidine], the IC50 in the data set with coronary artery [2] was 100 µM; in the data set on basilar artery [3] it was 43 µM; in the data set on coronary artery [5], 25 µM; in the data set on basilar artery [6], over 100 µM. Besides, in data set [4], the 50% lethal dose (LD50) at 336 h is at least 1000 mg/kg. The “Rate of Coronary Blood Flow Increase, 50 μg/kg (iv)” value in the data set on coronary blood flow was 20.4 ± 6.3%. For the same compound, the “Rate of Coronary Blood Flow Increase, 100 μg/kg (iv)” value in the data set on coronary blood flow was 52.8 ± 21.1%.

Regarding `Cc1nc2c(C#N)c(C)nn2c2c1CCN2C(C)(C)C` [Compound No. 2, 8-tert-butyl-3-cyano-6,7-dihydro-2,5-dimethyl-8H-pyrrolo[3,2-e]pyrazolo[1,5-a]pyrimidine], in the data set on coronary artery [8], the IC50 worked out at 1.8 µM and the “vasodilative activity, times stronger than trapidil” value (from here on “vasodilative activity”) turned out to be 35 times. In the data set on basilar artery [9], the IC50 was 2.7 µM and the “vasodilative activity” value is reported as 37 times. Moreover, the LD50 at 336 h in data set [4] is at least 2000 mg/kg.

Regarding `Cc1nc2c(C#N)cnn2c2c1CCN2C1CCCC1` [Compound No. 8, 3-cyano-8-cyclopentyl-6,7-dihydro-5-methyl-8H-pyrrolo [3,2-e]pyrazolo[1,5-a]pyrimidine], the IC50 in the data set with trachea [7] was 1 µM; in the data set on trachea [1] it was 0.13 µM; with coronary artery [2] it was over 100 µM; in the data set with basilar artery [3] it was over 100 µM; with coronary artery [5] it was 0.2 µM; in the data set with basilar artery [6], over 100 µM. For the same compound, in the data set with trachea [7], the “Ratio of Effectiveness, His Contraction” value was determined as 6.3. For the same compound, the “Ratio of Effectiveness, ACh Contraction” value in the data set on trachea [1] came to 38.5. This compound had an LD50 at 336 h in data set [4] of at least 1000 mg/kg.

For `CCCCCCN1CCc2c(C)nc3c(C#N)cnn3c21` [Compound No. 7, 3-cyano-6,7-dihydro-8-hexyl-5-methyl-8H-pyrrolo [3,2-e]pyrazolo[1,5-a]pyrimidine], the IC50 in the data set with trachea [7] is 13 µM; in the data set on trachea [1], 6.3 µM; in the data set with coronary artery [2], over 100 µM; in the data set with basilar artery [3], 85 µM; in the data set on coronary artery [5] it was over 100 µM; with basilar artery [6], over 100 µM. In addition, in the data set with trachea [7], the “Ratio of Effectiveness, His Contraction” value is 0.5. In addition, the “Ratio of Effectiveness, ACh Contraction” value in the data set on trachea [1] came out at 0.8. For the same compound, the LD50 at 336 h in data set [4] was at least 1000 mg/kg.

For `CCC(C)N1CCc2c(C)nc3c(C#N)cnn3c21` (centres unmarked) [Compound No. 5, 8-sec-butyl-3-cyano-6,7-dihydro-5-methyl-8H-pyrrolo [3,2-e]pyrazolo[1,5-a]pyrimidine], the IC50 in the data set on trachea [7] is 0.4 µM; with trachea [1], 0.5 µM; in the data set on coronary artery [2], over 100 µM; with basilar artery [3] it was over 100 µM; in the data set on coronary artery [5] it was 3.2 µM; with basilar artery [6] it was 2.5 µM. Besides, in the data set with trachea [7], the “Ratio of Effectiveness, His Contraction” value was determined as 15.8. For the same compound, in the data set on trachea [1], the “Ratio of Effectiveness, ACh Contraction” value was found to be 10.0. For the same compound, in data set [4], the 50% lethal dose (LD50) at 336 h is at least 1000 mg/kg. Further, in the data set on coronary blood flow, the “Rate of Coronary Blood Flow Increase, 50 μg/kg (iv)” value is recorded as 8.2 ± 3.7%. In the data set on coronary blood flow, the “Rate of Coronary Blood Flow Increase, 100 μg/kg (iv)” value stood at 27.3 ± 5.2%.

Take `CCCCN1CCc2c(C)nc3c(C#N)cnn3c21` [Compound No. 3, 8-butyl-3-cyano-6,7-dihydro-5-methyl-8H-pyrrolo [3,2-e]pyrazolo[1,5-a]pyrimidine]: the IC50 was 30 µM with trachea [7]; over 100 µM with coronary artery [2]; 34 µM in the data set on basilar artery [3]; over 100 µM in the data set with coronary artery [5]; over 100 µM with basilar artery [6]. Further, the “Ratio of Effectiveness, His Contraction” value with trachea [7] was found to be 2.1. This compound displayed an LD50 at 336 h in data set [4] of at least 1000 mg/kg. Moreover, the “Rate of Coronary Blood Flow Increase, 50 μg/kg (iv)” value in the data set with coronary blood flow amounted to 11.5 ± 4.6%. Besides, in the data set on coronary blood flow, the “Rate of Coronary Blood Flow Increase, 100 μg/kg (iv)” value was 37.9 ± 16.3%.

In the case of `CCCCCN1CCc2c(C)nc3c(C#N)cnn3c21` [Compound No. 6, 3-cyano-6,7-dihydro-5-methyl-8-pentyl-8H-pyrrolo [3,2-e]pyrazolo[1,5-a]pyrimidine], the IC50 with trachea [7] is 16 µM; in the data set on trachea [1] it was 3.2 µM; in the data set with coronary artery [2] it was over 100 µM; with basilar artery [3], over 100 µM; in the data set with coronary artery [5] it was over 100 µM; in the data set on basilar artery [6] it was over 100 µM. Moreover, in the data set on trachea [7], the “Ratio of Effectiveness, His Contraction” value was 0.4. Besides, the “Ratio of Effectiveness, ACh Contraction” value with trachea [1] came out at 1.6. The compound further displayed an LD50 at 336 h in data set [4] of at least 1000 mg/kg. In the data set on coronary blood flow, the “Rate of Coronary Blood Flow Increase, 50 μg/kg (iv)” value was found to be 7.3 ± 3.1%. For the same compound, the “Rate of Coronary Blood Flow Increase, 100 μg/kg (iv)” value with coronary blood flow was 15.4 ± 5.7%.

On to `Cc1nc2ccnn2c2c1CCN2C(C)(C)C` [Compound No. 11, 8-tert-butyl-6,7-dihydro-5-methyl-8H-pyrrolo[3,2-e]pyrazolo[1,5-a]pyrimidine], for which the IC50 with trachea [7] came out at 6.3 µM; with coronary artery [2], 16 µM; in the data set on basilar artery [3], 10 µM; in the data set with coronary artery [5] it was 3.2 µM; in the data set on basilar artery [6], 7.9 µM. For the same compound, the “Ratio of Effectiveness, His Contraction” value with trachea [7] came to 1.0. Further, in data set [4], the LD50 at 336 h was at least 1000 mg/kg.

Consider `Cc1nc2c(C#N)cnn2c2c1CCN2C(C)(C)C` [Compound No. 1, 8-tert-butyl-3-cyano-6,7-dihydro-5-methyl-8H-pyrrolo[3,2-e]pyrazolo[1,5-a]pyrimidine], for which the IC50 in the data set with coronary artery [8] is 1.6 µM; in the data set on trachea [7], 1.3 µM; in the data set with trachea [1], 0.2 µM; in the data set on coronary artery [2], over 100 µM; in the data set on basilar artery [3], over 100 µM; with basilar artery [9] it was 2.7 µM. Further, the IC50 amounted to 1.3 µM in the data set with coronary artery [5] and 1.6 µM in the data set on basilar artery [6]. The “vasodilative activity” value with coronary artery [8] worked out at 39 times; with basilar artery [9], 37 times. For the same compound, the “Ratio of Effectiveness, His Contraction” value in the data set with trachea [7] is 4.9. The “Ratio of Effectiveness, ACh Contraction” value in the data set with trachea [1] worked out at 25.0. This compound yielded an LD50 at 336 h in data set [4] of at least 2000 mg/kg. The “Rate of Coronary Blood Flow Increase, 50 μg/kg (iv)” value with coronary blood flow stood at 51.9 ± 11.9%. The “Rate of Coronary Blood Flow Increase, 100 μg/kg (iv)” value in the data set with coronary blood flow was 181.6 ± 27.8%.
